From patent publication US20200237779A1, “COMBINATION THERAPY WITH A BET INHIBITOR AND A BCL-2 INHIBITOR” (Hoffmann-La Roche Inc., priority 2017, published 2020)

Tested on: KMS-12BM MM xenografts
Assay: In vivo antitumor efficacy against KMS-12BM MM xenografts
Parameters: species or system CIEA NOG mice
Settings: D14-25; for Antitumor efficacy (result in words): KMS-12BM xenografts, RG6146 30 mg/kg ip, venetoclax 100 mg/kg po, single agent or combination; for Tumor Regression (%) / npTCR and CI (non-parametric Treatment to Control Ratio) / TGI % (tumor growth inhibition): s.c. KMS-12BM human MM xenografts in female CIEA NOG mice, RG6146 30 mg/kg ip QD, venetoclax 100 mg/kg po QD, Day 25; for TGI % (tumor growth inhibition): compared to control
Procedure: The in vivo antitumor efficacy of BET inhibitor RG6146 in combination with Bcl-2 inhibitor venetoclax (GDC-0199) was evaluated against KMS-12BM MM xenografts.
BET inhibitor RG6146 was provided as a powder from Roche, Basel, Switzerland and resuspended prior to use. Bcl-2 inhibitor venetoclax was provided by Genentech, South San Francisco, USA and formulated prior to use.
The original KMS-12BM human Multiple Myeloma cell line (MM) was purchased from ATCC (Manassas, V., USA). Expansion of tumor cells for the transplantation was done by the TAP CompacT CellBase Cell Culture Roboter according to the protocol. Tumor cell line was routinely cultured in RPMI 1640 medium, FCS 10% and L-Glutamin 2 mM at 37° C. in a water-saturated atmosphere at 5% CO2. Culture passage was performed with trypsin/EDTA 1× splitting twice/week and passage 3 used for transplantation.
Female CIEA NOG mice (Taconic), age 5-7 weeks at arrival, maintained under specific-pathogen-free condition with daily cycles of 12 h light/12 h darkness according to committed guidelines. Experimental study protocol was reviewed and approved by local government. After arrival animals were maintained in animal facility for one week to get accustomed to new environment and for observation. Continuous health monitoring was carried out on regular basis. Diet food and autoclaved water were provided ad libitum.
Animals were controlled daily for clinical symptoms and detection of adverse effects. For monitoring throughout the experiment body weight of animals was documented.
Animal treatment started after randomisation when median tumor size was about 170 mm^3. The vehicle was administered ip once daily (QD) on D14-25. BET inhibitor RG6146 ip treatment at 30 mg/kg was done as single agent and in combination on D14-25. Finally, Bcl-2 inhibitor venetoclax was given orally at 100 mg/kg as single agent and in combination on D14-25.
KMS-12BM human MM cells were s.c. inoculated with Matrigel onto female CIEA-NOG mice. Tumor bearing mice were randomized 14 days later to the indicated study groups and compound treatment initiated. Tumor bearing animals were treated with vehicle control, with the BET inhibitor RG6146 at 30 mg/kg or with Bcl-2 inhibitor venetoclax at 100 mg/kg as single agent and in combination thereof.

Row | Structure (SMILES) | Antitumor efficacy (result in words) | Tumor Regression (%) | npTCR and CI (non-parametric Treatment to Control Ratio) | TGI % (tumor growth inhibition) [%]
1 | Cc1sc2c(c1C)C(c1ccc(Cl)cc1)=N[C@@H](CC(=O)NCCCN1CCN(C)CC1)c1nnc(C)n1-2 [RG6146, 2-[(S)-4-(4-Chloro-phenyl)-2,3,9-trimethyl-6H-1-thia-5,7,8,9a-tetraaza-cyclopenta[e]azulen-6-yl]-N-[3-(4-methyl-piperazin-1-yl)-propyl]-acetamide] | nearly tumor stasis | 0 | 0.06 | 94
2 | CC1(C)CCC(CN2CCN(c3ccc(C(=O)NS(=O)(=O)c4ccc(NCC5CCOCC5)c([N+](=O)[O-])c4)c(Oc4cnc5[nH]ccc5c4)c3)CC2)=C(c2ccc(Cl)cc2)C1 [venetoclax, 4-(4-{[2-(4-chlorophenyl)-4,4-dimethylcyclohex-1-en-1-yl]methyl}piprazin-1-yl)-N-({3-nitro-4-[(tetrahydro-2H-pyran-4-ylmethyl)amino]phenyl}sulfonyl)-2-(1H-pyrrolo[2,3-b]pyridin-5-yloxy)benzamide] | weaker activity | 0 | 0.55 | 49
